Results reported in US20240091110A1, “Oral Care Compositions and Methods of Use” (Colgate-Palmolive Company, priority 2019, published 2024).

Tested on: mixed species biofilm
Test: Seahorse XFe Extracellular Flux Analyzer, Mitochondrial Respiration - Oxygen Consumption Rate (OCR) in mixed biofilm assay
Assay type: cell-based
Description: Samples with varying amounts of cannabidiol (CBD) are assessed for their effects on cellular metabolism with and without various source of zinc. Using the Seahorse XF^e Extracellular Flux Analyzer, biofilm samples are grown for 48 hrs. […] The biofilms are harvested for culture. Diluted biofilm and toothpaste slurry are loaded to each well. Glycolysis—Extracellular Acidification Rate (ECAR) and Mitochondrial Respiration—Oxygen Consumption Rate (OCR) is measured for 25-50 cycles (˜360 minutes). The “CBD Oil” is 5% CBD (by wt. of the CBD Oil) in Hemp seed oil.
Where the “OCR” is oxygen consumption rate units as measured using the Seahorse XF^e Extracellular Flux Analyzer: […]

SMILES	Average (OCR) (Table 3, separate experiment, stannous slurry, untreated 11489.9)	Average (OCR) (Table 1, CBD and zinc lactate, biofilm grown 48 hrs, untreated 25,669.50)
[F][Sn][F] [0.2% by wt. Stannous Fluoride, Stannous Fluoride]	10440.7	–
CC(O)C(=O)[O-].CC(O)C(=O)[O-].[Zn+2] (centres unmarked) [1.5% Zinc Lactate, Zinc Lactate]	–	21,900.63
